# Measured values: the supplement of paper PMC10307832
# What was measured:
# Assay in all cases: relative viability (nuclei count vs DMSO), 5 days (fraction); higher = more cells survive
# DM3189 + Bortezomib = compound: C1CN(CCN1)C2=CC=C(C=C2)C3=CN4C(=C(C=N4)C5=CC=NC6=CC=CC=C56)N=C3 [DM3189] + CC(C)C[C@H](NC(=O)[C@H](Cc1ccccc1)NC(=O)c1cnccn1)B(O)O [Bortezomib] (partner 0.002 µM)
# Summary of the method: (§1)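 Five library-drug doses in √10 steps were combined with a fixed anchor-drug dose, or a single drug was given alone, by pin tool to lung cancer cell lines in 1536-well plates the day after seeding. Nuclei were stained and counted after 5 days. Relative viability is the nuclei count in treated wells over that in vehicle wells, taken as the median of duplicate plates.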
# DM3189 + Tozasertib = compound: C1CN(CCN1)C2=CC=C(C=C2)C3=CN4C(=C(C=N4)C5=CC=NC6=CC=CC=C56)N=C3 [DM3189] + Cc1cc(Nc2cc(N3CCN(C)CC3)nc(Sc3ccc(NC(=O)C4CC4)cc3)n2)n[nH]1 [Tozasertib] (partner 0.1 µM)
# Summary of the method: as §1
# DM3189 + Phenformin = compound: C1CN(CCN1)C2=CC=C(C=C2)C3=CN4C(=C(C=N4)C5=CC=NC6=CC=CC=C56)N=C3 [DM3189] + N=C(N)NC(=N)NCCc1ccccc1 [Phenformin] (partner 250 µM)
# Summary of the method: as §1
# DM3189 + Pemetrexed = compound: C1CN(CCN1)C2=CC=C(C=C2)C3=CN4C(=C(C=N4)C5=CC=NC6=CC=CC=C56)N=C3 [DM3189] + Nc1nc2[nH]cc(CCc3ccc(C(=O)N[C@@H](CCC(=O)O)C(=O)O)cc3)c2c(=O)[nH]1 [Pemetrexed] (partner 0.2 µM)
# Summary of the method: as §1
# DM3189 + Linsitinib = compound: C1CN(CCN1)C2=CC=C(C=C2)C3=CN4C(=C(C=N4)C5=CC=NC6=CC=CC=C56)N=C3 [DM3189] + C[C@]1(O)C[C@@H](c2nc(-c3ccc4ccc(-c5ccccc5)nc4c3)c3c(N)nccn32)C1 [Linsitinib] (partner 1 µM)
# Summary of the method: as §1
Cell Line,relative viability (DM3189 + Bortezomib; first compound 0.08 µM),relative viability (DM3189 + Bortezomib; first compound 0.253 µM),relative viability (DM3189 + Bortezomib; first compound 0.8 µM),relative viability (DM3189 + Bortezomib; first compound 2.53 µM),relative viability (DM3189 + Tozasertib; first compound 0.08 µM),relative viability (DM3189 + Tozasertib; first compound 0.253 µM),relative viability (DM3189 + Tozasertib; first compound 0.8 µM),relative viability (DM3189 + Tozasertib; first compound 2.53 µM),relative viability (DM3189 + Phenformin; first compound 0.08 µM),relative viability (DM3189 + Phenformin; first compound 0.253 µM),relative viability (DM3189 + Phenformin; first compound 0.8 µM),relative viability (DM3189 + Phenformin; first compound 2.53 µM),relative viability (DM3189 + Pemetrexed; first compound 0.08 µM),relative viability (DM3189 + Pemetrexed; first compound 0.253 µM),relative viability (DM3189 + Pemetrexed; first compound 0.8 µM),relative viability (DM3189 + Pemetrexed; first compound 2.53 µM),relative viability (DM3189 + Linsitinib; first compound 0.08 µM),relative viability (DM3189 + Linsitinib; first compound 0.253 µM),relative viability (DM3189 + Linsitinib; first compound 0.8 µM),relative viability (DM3189 + Linsitinib; first compound 2.53 µM)
ChaGo-K-1,1.32,0.882,1.01,0.757,0.235,0.228,0.222,0.233,0.53,0.467,0.455,0.432,0.255,0.266,0.261,0.264,,,,
NCI-H2342,,,,,0.599,0.526,0.541,0.483,0.625,0.594,0.595,0.498,0.954,0.745,0.802,0.847,,,,
SK-MES-1,,,,,0.901,0.831,0.687,0.87,0.679,0.62,0.587,0.662,1.12,0.962,0.822,0.849,1.11,0.981,0.97,0.944
LCLC-97TM1,1.26,0.573,0.531,0.366,0.229,0.171,0.182,0.188,0.459,0.364,0.433,0.399,0.182,0.17,0.136,0.167,0.162,0.188,0.145,0.181
NCI-H2170,,,,,0.84,0.651,0.525,0.71,0.435,0.367,0.361,0.397,0.282,0.276,0.373,0.248,,,,
NCI-H2009,1.24,1.04,0.782,0.984,0.678,0.69,0.67,0.673,0.526,0.471,0.438,0.445,1.07,0.988,0.985,1,1.24,1.21,1.11,1.29
NCI-H520,0.503,0.345,0.429,0.368,0.491,0.33,0.364,0.313,0.577,0.309,0.324,0.366,0.603,0.492,0.49,0.296,0.995,0.863,0.706,0.554
NCI-H1975,0.454,0.371,0.297,0.353,0.652,0.693,0.649,0.541,0.455,0.38,0.4,0.329,0.27,0.281,0.266,0.278,1.18,0.955,0.929,0.727
SK-LU-1,1.24,0.882,0.738,0.7,0.241,0.204,0.248,0.219,0.479,0.383,0.33,0.314,1,0.863,0.857,0.549,0.888,0.688,0.667,0.524
NCI-H441,0.656,0.604,0.447,0.645,0.943,0.57,0.681,0.738,0.825,0.959,0.794,0.738,0.3,0.243,0.295,0.287,0.587,0.511,0.518,0.548
NCI-H1651,1.04,0.984,0.908,0.971,0.704,0.722,0.628,0.649,0.45,0.339,0.335,0.272,0.729,0.556,0.553,0.541,1.09,1.02,1.21,0.991
ABC-1,0.364,0.272,0.244,0.23,0.192,0.134,0.165,0.175,0.256,0.233,0.216,0.176,,,,,0.806,0.894,0.752,0.783
NCI-H1792,0.838,0.926,0.852,0.656,,,,,0.275,0.267,,0.458,0.986,0.98,0.645,0.616,0.409,0.532,0.449,0.315
NCI-H1944,,,,,0.275,0.273,,0.267,0.237,0.192,,0.192,0.661,0.603,0.603,0.675,1.26,1.19,,1.21
NCI-H1703,0.365,0.292,0.326,0.298,,,,,,,,,,,,,0.597,0.635,0.575,0.693
NCI-H1650,0.248,0.163,0.228,0.189,0.322,0.362,0.389,0.377,0.5,0.347,0.387,0.354,0.311,0.347,0.351,0.37,,,,
NCI-H1395,,,,,0.69,0.689,0.697,0.799,0.465,0.431,0.456,0.442,1.13,0.786,,0.806,0.979,1.05,0.695,1.03
NCI-H1793,,,,,0.33,0.321,0.294,0.357,0.397,0.412,0.415,0.344,1.03,1.18,1.1,1.47,1.09,0.997,0.937,1.21
NCI-H522,,,,,0.602,0.582,0.552,0.494,0.675,0.591,0.592,0.617,0.992,0.898,0.767,0.873,,,,
SW 900,,,,,0.604,0.509,0.446,0.437,0.599,0.465,0.535,0.568,0.505,,0.44,0.581,,,,
